From patent US20230000936A1, “A[…] ITCHING […] C[…]” (Demetrix, Inc., priority 2021, published 2023)
Entries after “also recorded” stand apart in the source; their conditions may differ.

What was measured:
Format in all cases: cell-based
CHRM2 [1] = target: T1, CHRM2 (Homo sapiens, UniProt P08172); assay: GPCR reactivity screen, PathHunter β-Arrestin, agonist assay CHRM2; design: concentration or dose not given beside the values; details: agonist mode; control acetylcholine
T1 sequence (P08172 1-466): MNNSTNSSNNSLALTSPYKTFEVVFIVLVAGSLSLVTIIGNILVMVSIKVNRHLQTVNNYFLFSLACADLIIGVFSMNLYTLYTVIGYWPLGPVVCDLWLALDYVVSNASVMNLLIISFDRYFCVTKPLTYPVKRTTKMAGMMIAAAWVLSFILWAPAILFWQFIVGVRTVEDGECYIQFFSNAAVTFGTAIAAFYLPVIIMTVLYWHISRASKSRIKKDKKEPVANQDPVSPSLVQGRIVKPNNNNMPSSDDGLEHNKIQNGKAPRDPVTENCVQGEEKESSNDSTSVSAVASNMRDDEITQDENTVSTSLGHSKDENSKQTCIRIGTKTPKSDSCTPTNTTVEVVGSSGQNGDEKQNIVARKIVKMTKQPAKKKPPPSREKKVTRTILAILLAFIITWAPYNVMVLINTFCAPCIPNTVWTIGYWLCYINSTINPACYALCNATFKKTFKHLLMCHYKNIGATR
Protocol: (§1) To evaluate the role specific cannabinoid compounds play in the neurological signaling pathway for itching, a GPCR reactivity assay was performed to determine the reactivity of 19 cannabinoid compounds to each of CHRM2, EDG3, and MRGPRX2. The evaluated cannabinoid compounds were: CBN, THCV, CBDVA, CBG, CBL, CBC, CBDV, CBDA, CBD, CBGA, (+)-CBD, CBG-C4, CBD-C1, CBD-C2, CBGV, CBGA-C4, CBGVA, CBCA, and CBLA. Acetylcholine was used as the control for CHRM2, sphingosine-1-phosphate was used as the control for EDG3; and cortistatin 14 was used as the control for MRGPRX2.
(§2) A total of six assays were run. Specifically, agonist and antagonist assays were run for each of CHRM2, EDG3, and MRGPRX2. In each of the three agonist assays, PathHunter® cell lines were removed from a freezer stock and seeded at a volume of 20 μL into white walled, 384-well microplates and incubated at 37° C. Each cell was incubated with a sample to induce a response and then diluted to generate a 5× sample in assay buffer. 5 μL of the 5× sample was then added to cells and incubated at 37° C. for 90 or 180 minutes. The final assay concentration was 1%. The assay signal was generated through addition of 12.5 μL or 15 μL (50% V/V) of a detection reagent cocktail followed by a one hour incubation time at room temperature. Microplates were read following signal generation with a PerkinElmer Envision™ (PerkinElmer Inc., Waltham, Mass.) for chemiluminescent signal detection. Reactivity was analyzed using the CBIS data analysis suite (ChemInnovation, CA) where RLU refers to the raw measured values. The percent activity was then calculated using the formula: % Activity=100%*(mean RLU of test sample−mean RLU of control)/(mean max control ligand−mean RLU of vehicle control).
(§3) As used herein, strong activity against a receptor is considered a percent activity of about 42% or higher. Higher results for antagonism against CHRM2, EDGE, and MRGPRX2 are considered better. It is further considered better when a cannabinoid inhibits more than one of the receptors.

CHRM2 [2] = target: T1, CHRM2; assay: GPCR reactivity screen, PathHunter β-Arrestin, antagonist assay CHRM2; details: for antagonist activity against CHRM2 (in words): GPCR reactivity screen; for CHRM2 (Antagonist) percent inhibition: antagonist mode, agonist challenge at EC80
Protocol: as §1
(§4) In each of the antagonist assays, PathHunter® cell lines were removed from a freezer stock and seeded at a volume of 20 μL into white walled, 384-well microplates and incubated at 37° C. Each cell was pre-incubated with an antagonist followed by an agonist challenge at the EC80 concentration. Cells were then diluted to generate a 5× sample in assay buffer. 5 μL of the 5× sample was then added to cells and incubated at 37° C. for 30 minutes. Finally, 5 μL of 6×EC80 agonist in assay buffer were added to the cells and incubated at 37° C. for 90 minutes or 180 minutes. The assay signal was generated through addition of 12.5 μL or 15 μL (50% V/V) of a detection reagent cocktail followed by a one hour incubation time at room temperature. Microplates were read following signal generation with a PerkinElmer Envision™ (PerkinElmer Inc., Waltham, Mass.) for chemiluminescent signal detection. Reactivity was analyzed using the CBIS data analysis suite (ChemInnovation, CA) where RLU refers to the raw measured values. The percent inhibition was calculated using the formula: % Inhibition=100%*(1−mean RLU of test sample−mean RLU of control)/(mean RLU of EC80 control−mean RLU of vehicle control).
as §3

EDG3 [3] = target: T2, EDG3 (Homo sapiens, UniProt Q99500); assay: GPCR reactivity screen, PathHunter β-Arrestin, agonist assay EDG3; design: concentration or dose not given beside the values; details: agonist mode; control sphingosine-1-phosphate
T2 sequence (Q99500 whole entry): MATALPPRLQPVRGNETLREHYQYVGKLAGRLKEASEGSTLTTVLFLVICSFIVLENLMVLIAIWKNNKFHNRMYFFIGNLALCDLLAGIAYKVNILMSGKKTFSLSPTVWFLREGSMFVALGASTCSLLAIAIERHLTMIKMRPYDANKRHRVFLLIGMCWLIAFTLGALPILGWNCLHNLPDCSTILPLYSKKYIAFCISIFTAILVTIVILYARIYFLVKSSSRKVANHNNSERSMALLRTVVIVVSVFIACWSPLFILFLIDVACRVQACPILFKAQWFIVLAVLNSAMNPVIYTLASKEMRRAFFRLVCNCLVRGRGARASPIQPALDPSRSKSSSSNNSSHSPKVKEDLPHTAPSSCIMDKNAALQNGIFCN
Protocol: as §1, §2, §3

EDG3 [4] = target: T2, EDG3; assay: GPCR reactivity screen, PathHunter β-Arrestin, antagonist assay EDG3; details: for antagonist activity against EDG3 (in words): GPCR reactivity screen; for EDG3 (Antagonist) percent inhibition: antagonist mode, agonist challenge at EC80
Protocol: as §1, §4, §3

MRGPRX2 [5] = target: T3, MRGPRX2 (Homo sapiens, UniProt Q96LB1); assay: GPCR reactivity screen, PathHunter β-Arrestin, agonist assay MRGPRX2; details: agonist mode; control cortistatin 14
T3 sequence (Q96LB1 1-330): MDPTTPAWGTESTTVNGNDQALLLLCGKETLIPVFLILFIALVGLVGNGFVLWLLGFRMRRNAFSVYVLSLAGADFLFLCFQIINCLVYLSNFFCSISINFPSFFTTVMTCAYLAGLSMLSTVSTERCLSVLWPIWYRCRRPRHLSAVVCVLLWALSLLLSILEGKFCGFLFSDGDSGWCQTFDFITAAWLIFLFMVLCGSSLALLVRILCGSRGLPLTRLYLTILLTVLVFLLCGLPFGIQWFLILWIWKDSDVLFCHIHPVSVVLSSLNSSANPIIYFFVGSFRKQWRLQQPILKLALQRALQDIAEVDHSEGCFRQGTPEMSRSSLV
Protocol: as §1, §2, §3

MRGPRX2 [6] = target: T3, MRGPRX2; assay: GPCR reactivity screen, PathHunter β-Arrestin, antagonist assay MRGPRX2; details: for antagonist activity against MRGPRX2 (in words): GPCR reactivity screen; for MRGPRX2 (Antagonist) percent inhibition: antagonist mode, agonist challenge at EC80
Protocol: as §1, §4, §3

MRGPRX2 [7] = target: T3, MRGPRX2; assay: IC50 antagonist activity screen, PathHunter β-Arrestin, MRGPRX2; details: maximum of IC50 curve
Protocol: as §4
as §3, with “IC50 curves were measured using the same GPCR assay, PathHunter® β-Arrestin from Eurofins DiscoverX Products (Fremont, Calif.), as the GPCR reactivity screen. As” for “As”, “maximum” for “percent”

Row | Compound | CHRM2 (Agonist) percent activity (CHRM2 [1]) | antagonist activity against CHRM2 (in words) (CHRM2 [2]) | CHRM2 (Antagonist) percent inhibition (CHRM2 [2]) | EDG3 (Agonist) percent activity (EDG3 [3]) | antagonist activity against EDG3 (in words) (EDG3 [4]) | EDG3 (Antagonist) percent inhibition (EDG3 [4]) | MRGPRX2 (Agonist) percent activity (MRGPRX2 [5]) | antagonist activity against MRGPRX2 (in words) (MRGPRX2 [6]) | MRGPRX2 (Antagonist) percent inhibition (MRGPRX2 [6]) | maximum inhibition (antagonism) MRGPRX2 (MRGPRX2 [7])
1 | C=C(C)[C@@H]1CCC(C)=C[C@H]1c1c(O)cc(C)cc1O [CBD-C1, cannabidiorcol] | −1% | do not exhibit an antagonistic effect; also recorded: did not exhibit antagonistic effects | 2% | 1% | do not exhibit an antagonistic effect; also recorded: did not exhibit antagonistic effects | 13% | 1% | do not exhibit an antagonistic effect; also recorded: did not exhibit antagonistic effects | 12% | 
2 | C=C(C)[C@@H]1CCC(C)=C[C@H]1c1c(O)cc(CC)cc1O [CBD-C2, cannabidol-C2] | 1% | do not exhibit an antagonistic effect; also recorded: did not exhibit antagonistic effects | 21% | 1% | do not exhibit an antagonistic effect; also recorded: did not exhibit antagonistic effects | 20% | 1% | do not exhibit an antagonistic effect; also recorded: did not exhibit antagonistic effects | 31% | 43%
3 | C=C(C)[C@@H]1CCC(C)=C[C@H]1c1c(O)cc(CCCCC)c(C(=O)O)c1O [CBDA, cannabidiolic acid] | 1% | do not exhibit an antagonistic effect | −10% | −1% | do not exhibit an antagonistic effect | 5% | 4% | do not exhibit an antagonistic effect | 8% | 
4 | C=C(C)[C@@H]1CCC(C)=C[C@H]1c1c(O)cc(CCC)c(C(=O)O)c1O [CBDVA, cannabidivarinic acid] | 2% | do not exhibit an antagonistic effect | 2% | −3% | do not exhibit an antagonistic effect | 13% | 5% | do not exhibit an antagonistic effect | −8% | 
5 | CCCCc1cc(O)c(CC=C(C)CCC=C(C)C)c(O)c1 [CBG-C4, cannabigerol butyl] | 0% |  | 13% | 3% |  | 28% | 3% | antagonist activity | 94% | 85%
6 | CCCCCc1cc(O)c(C/C=C(\C)CCC=C(C)C)c(O)c1C(=O)O [CBGA, cannabigerolic acid] | −3% | do not exhibit an antagonistic effect | 12% | 2% | do not exhibit an antagonistic effect | 12% | 0% | do not exhibit an antagonistic effect | 17% | 
7 | CCCCc1cc(O)c(C/C=C(\C)CCC=C(C)C)c(O)c1C(=O)O [CBGA-C4, cannabigerolic acid butyl] | −4% | do not exhibit an antagonistic effect | 19% | 0% | do not exhibit an antagonistic effect | 16% | −1% | do not exhibit an antagonistic effect | 20% | 
8 | CCCc1cc(O)c(C/C=C(\C)CCC=C(C)C)c(O)c1 [CBGV, cannabigerivarin] | 0% |  | 28% | 2% |  | 29% | 1% | antagonist activity | 95% | 76%
9 | CCCc1cc(O)c(C/C=C(\C)CCC=C(C)C)c(O)c1C(=O)O [CBGVA, cannabigerovarinic acid] | −4% | do not exhibit an antagonistic effect | 23% | −1% | do not exhibit an antagonistic effect | 9% | −1% | do not exhibit an antagonistic effect | 7% | 
10 | CCCCCc1cc2c(c(O)c1C(=O)O)C1C3C(CCC3(C)O2)C1(C)C (stereo not drawn) [CBLA, cannabicyclolic acid] | −4% |  | −19% | 3% |  | 19% | 2% |  | 36% | 44%
